US20250154198A1, “PEPTIDE INHIBITORS OF INTERLEUKIN-23 RECEPTOR” (Zealand Pharma A/S, priority 2021, published 2025)
*1 amine or outer side, *2 acyl side, *3 side chain or, on linkers, in order; H or OH if unused. Where a SMILES comes first, the peptide text is derived from it. Bridges are numbered along the chain shown (N, C = ends). [ ]: non-standard residue; d: D form. Pipz(1-CH2CO,4-CH2CH2NH) = O=C(CN1CCN(CCN[*:1])CC1)[*:2]; 2Nal = N[C@@H](Cc1ccc2ccccc2c1)C(=O)O; AEF = NCCOc1ccc(C[C@H](N)C(=O)O)cc1; αMeL = CC(C)C[C@](C)(N)C(=O)O; CH2COCH2 = O=C(C[*:1])C[*:2]; αMeK = C[C@](N)(CCCCN)C(=O)O; Ahx = NCCCCCC(=O)O

Key:
[1] = biological target: IL-23 mediated phospho-STAT3 formation in DB cells (Homo sapiens, UniProt Q5VWK5); experiment: Functional inhibition of IL-23 mediated STAT3 signalling (phospho-STAT3 Tyr705 MSD) in DB cells; type: cell-based; details: Table 3-1; DB cells; read-out: IC50 (pSTAT3)
From the text: Functional Inhibition of IL-23 Mediated STAT3 Signalling by Compounds
Upon binding of IL-23, the IL-23R forms a heterodimer signalling complex together with IL-12R β1, which through the JAK2/STAT3 pathway promotes phosphorylation of STAT3 to form phospho-STAT3.
The assay was used to quantify the functional antagonism of a compound and to rank order the inhibitor compounds according to their potency. For compounds tested in this assay, the response was normalized relative to control values to calculate the IC50 and maximal inhibitory response from a concentration response curve of the compound in presence of a fixed concentration of human IL-23.
The assay procedure was as follows. […] Following preincubation of the DB cells with inhibitor for 15 min in a cell incubator (37° C., 5% CO2), 20 μL of the prepared 3× the EC80 of hIL-23 solution was added to each well and incubated for 90 min in a cell incubator (37° C., 5% CO2). For some wells buffer only or IL-23 only corresponding to the EC80 was added to obtain readouts needed for normalization. To terminate the assay, the plate was spun at 1000 G for 5 min to pellet cells, the supernatant removed using an 8-channel manual pipette, and then added 50 μL/well Complete Lysis Buffer from the MSD STAT3 kit (Cat #K150SVD, Mesoscale) to the cell pellet. To completely lyse cells to release phospho-STAT3 for detection, the plate was shaken for 10 min at room temperature (500 rpm) sealed with aluminum foil and placed at −80° C. for a minimum of 15 min. Detection of the phospho-STAT3 level in the cell lysate from the individual wells was determined using the MSD STAT3 kit (Cat #K150SVD, Mesoscale) and read on a Meso QuickPlex SQ 120 plate reader (Mesoscale).
For data analysis raw data counts from the Meso QuickPlex SQ 120 plate reader were normalized relative to the response by the EC80 of hIL-23 alone (no compound added) and the buffer level. Compound potency (IC50) and maximal inhibitory response (% inhibition) were estimated by computer-aided curve fitting using a 4-parameter logistic (4PL) non-linear model.

human IL-23R = biological target: T1, human IL-23R (Homo sapiens, UniProt Q5VWK5); experiment: Binding assay (NanoBRET displacement of fluorophore-labelled reference compound) for estimating binding affinity to human IL-23R; details: Table 3-1; read-out: Ki hIL-23R
T1 construct: UniProtKB—Q5VWK5, amino acids 22-629; secretion signal of the plasmid (Promega N1371); expressed in transfected cells
T1 sequence (Q5VWK5 22-629): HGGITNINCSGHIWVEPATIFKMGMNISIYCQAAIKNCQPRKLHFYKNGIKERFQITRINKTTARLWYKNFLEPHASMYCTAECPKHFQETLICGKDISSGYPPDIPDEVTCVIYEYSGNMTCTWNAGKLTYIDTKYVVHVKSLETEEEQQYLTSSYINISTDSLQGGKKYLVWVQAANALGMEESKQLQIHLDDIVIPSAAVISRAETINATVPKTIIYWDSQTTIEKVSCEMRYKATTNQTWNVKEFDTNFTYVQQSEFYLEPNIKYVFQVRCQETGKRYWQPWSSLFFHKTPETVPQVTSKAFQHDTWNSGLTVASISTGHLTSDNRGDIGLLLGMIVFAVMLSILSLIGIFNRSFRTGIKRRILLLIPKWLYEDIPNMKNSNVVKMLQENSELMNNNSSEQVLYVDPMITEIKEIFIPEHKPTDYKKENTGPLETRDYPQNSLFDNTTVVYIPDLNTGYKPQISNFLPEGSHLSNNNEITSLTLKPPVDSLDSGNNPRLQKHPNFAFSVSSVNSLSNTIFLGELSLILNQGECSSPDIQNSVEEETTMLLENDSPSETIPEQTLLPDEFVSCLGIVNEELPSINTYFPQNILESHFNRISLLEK

[2] = Peptide stability in simulated intestinal fluid (SIF); type: in vitro ADME; details: pig, simulated intestinal fluid (SIF) with porcine pancreatin, Table 3-2, porcine pancreatin, pH 6.8, 37° C., 10 μM
Method: Determination of Peptide Stability in Simulated Gastric Fluid (SGF) and Simulated Intestinal Fluid (SIF)
SGF was prepared by dissolving sodium chloride (0.2 g) in 50 mL of water. A volume of 0.7 mL of 10 M HCl was added to adjust the pH of the solution to 1.2 and the volume made up to 100 mL with water. […] SIF was prepared by dissolving monobasic potassium phosphate (0.68 g) in 50 mL of water and adjusting the pH to 6.8 with 1 M NaOH. The volume was subsequently made up to 100 mL with water. 200 mg porcine pancreatin (P1625, Sigma Aldrich) was gently dissolved into 20 mL preheated (37° C.) solution (10 g/L) immediately prior to the incubation.
The incubation was performed at 37° C. with gentle shaking. […] After the last timepoint, the sampling plate was mixed for 10 min on a shaking table and centrifuged 10 min at 2200 g. 70 μL resulting supernatant was diluted with 150 μL water, mixed and centrifugated before analysis by liquid chromatography high resolution mass spectrometry. […] Percent remaining at each timepoint was calculated relative to timepoint zero based on absolute peak areas.

IC50 [1] [nM]	SMILES	other results
> 1000	CC(=O)N[C@@H](CC(=O)O)C(=O)N[C@H]1CCC(=O)NCCCC[C@@H](C(N)=O)NC(=O)[C@H](CC(C)C)NC(=O)[C@H](Cc2c[nH]c3ccccc23)NC(=O)[C@H](Cc2c[nH]c3ccccc23)NC(=O)[C@@H]2CSCC(=O)CSC[C@H](NC(=O)[C@H](CO)NC1=O)C(=O)N[C@@H](Cc1c[nH]c3ccccc13)C(=O)N[C@@H](CCC(N)=O)C(=O)N2 [Compound 11, [Ac]-DE(1c)SC(2a)WQC(2a)WWLK(1c)-[NH2]] (HELM PEPTIDE1{[ac].D.E.S.C.W.Q.C.W.W.L.K.[am]}|CHEM1{[O=C(C[*:1])C[*:2]]}$PEPTIDE1,PEPTIDE1,3:R3-12:R3|PEPTIDE1,CHEM1,5:R3-1:R1|PEPTIDE1,CHEM1,8:R3-1:R2$$$V2.0)	–
> 1000	CC(=O)N[C@H]1CCC(=O)NCCCC[C@@H](C(N)=O)NC(=O)[C@H](CC(C)C)NC(=O)[C@H](Cc2c[nH]c3ccccc23)NC(=O)[C@H](Cc2c[nH]c3ccccc23)NC(=O)[C@@H]2CSCC(=O)CSC[C@H](NC(=O)[C@H](CO)NC1=O)C(=O)N[C@@H](Cc1c[nH]c3ccccc13)C(=O)N[C@@H](CCC(N)=O)C(=O)N2 [Compound 12, [Ac]-E(1c)SC(2a)WQC(2a)WWLK(1c)-[NH2]] (HELM PEPTIDE1{[ac].E.S.C.W.Q.C.W.W.L.K.[am]}|CHEM1{[O=C(C[*:1])C[*:2]]}$PEPTIDE1,PEPTIDE1,2:R3-11:R3|PEPTIDE1,CHEM1,4:R3-1:R1|PEPTIDE1,CHEM1,7:R3-1:R2$$$V2.0)	–
> 1000	CC(=O)N[C@H]1CCCCNC(=O)CC[C@@H](C(=O)N[C@@H](CCCNC(=N)N)C(N)=O)NC(=O)[C@H](CC(C)C)NC(=O)[C@H](Cc2ccc3ccccc3c2)NC(=O)[C@H](Cc2c[nH]c3ccccc23)NC(=O)[C@@H]2CSCC(=O)CSC[C@H](NC(=O)[C@H](CO)NC1=O)C(=O)N[C@@H](Cc1ccc3ccccc3c1)C(=O)N[C@@H](CCC(N)=O)C(=O)N2 [Compound 25, [Ac]-K(1c)SC(2a)[2-Nal]QC(2a)W[2-Nal]LE(1c)R-[NH2]] (Ac-KSC[2Nal]QCW[2Nal]LER-NH2; lactam 1-10; linker 3-6 via CH2COCH2)	–
> 1000	CC(=O)N[C@@H](CC(=O)O)C(=O)N[C@H]1CCC(=O)NCCCC[C@@H](C(=O)N[C@@H](CCCNC(=N)N)C(N)=O)NC(=O)[C@](C)(CC(C)C)NC(=O)[C@H](Cc2c[nH]c3ccccc23)NC(=O)[C@H](Cc2ccc(O)cc2)NC(=O)[C@@H]2CSCC(=O)CSC[C@H](NC(=O)[C@H](CCC(N)=O)NC1=O)C(=O)N[C@@H](Cc1c[nH]c3ccccc13)C(=O)N[C@@H](CCC(N)=O)C(=O)N2 [Compound 55, [Ac]-DE(1c)QC(2a)WQC(2a)YW[2-Me-Leu]K(1c)R-[NH2]] (HELM PEPTIDE1{[ac].D.E.Q.C.W.Q.C.Y.W.[CC(C)C[C@](C)(N[*:1])C(=O)[*:2]].K.R.[am]}|CHEM1{[O=C(C[*:1])C[*:2]]}$PEPTIDE1,PEPTIDE1,3:R3-12:R3|PEPTIDE1,CHEM1,5:R3-1:R1|PEPTIDE1,CHEM1,8:R3-1:R2$$$V2.0)	–
> 1000	CC(=O)N[C@@H](CC(=O)O)C(=O)N[C@H]1CCC(=O)NCCCC[C@@H](C(=O)N[C@@H](CCCNC(=N)N)C(N)=O)NC(=O)[C@](C)(CC(C)C)NC(=O)[C@H](Cc2c[nH]c3ccccc23)NC(=O)[C@H](Cc2ccc3ccccc3c2)NC(=O)[C@@H]2CSCC(=O)CSC[C@H](NC(=O)[C@H](CCC(N)=O)NC1=O)C(=O)N[C@@H](Cc1c[nH]c3ccccc13)C(=O)N[C@@H](CCC(N)=O)C(=O)N2 [Compound 56, [Ac]-DE(1c)QC(2a)WQC(2a)[2-Nal]W[2-Me-Leu]K(1c)R-[NH2]] (Ac-DEQCWQC[2Nal]W[αMeL]KR-NH2; lactam 2-11; linker 4-7 via CH2COCH2)	–
> 1000	CC(=O)N[C@@H](CC(=O)O)C(=O)N[C@H]1CCC(=O)NCCCC[C@@H](C(=O)N[C@@H](CCC(=O)O)C(=O)N[C@@H](CC(N)=O)C(=O)NCC(N)=O)NC(=O)[C@](C)(CCCCN)NC(=O)[C@H](Cc2ccc3ccccc3c2)NC(=O)[C@H](Cc2c[nH]c3ccccc23)NC(=O)[C@@H]2CSCC(=O)CSC[C@H](NC(=O)[C@H](CO)NC1=O)C(=O)N[C@@H](Cc1c[nH]c3ccccc13)C(=O)N[C@@H](CCC(N)=O)C(=O)N2 [Compound 61, [Ac]-DE(1c)SC(2a)WQC(2a)W[2-Nal][2-Me-Lys]K(1c)ENG-[NH2]] (Ac-DESCWQCW[2Nal][αMeK]KENG-NH2; lactam 2-11; linker 4-7 via CH2COCH2)	–
–	CC(C)C[C@]1(C)NC(=O)[C@H](Cc2ccc3ccccc3c2)NC(=O)[C@H](Cc2ccc(OCCN)cc2)NC(=O)[C@@H]2CSCC(=O)CSC[C@H](NC(=O)[C@H](CO)NC(=O)CCCCCNC(=O)CC[C@@H](C(=O)N[C@H](CCCNC(=N)N)C(N)=O)NC1=O)C(=O)N[C@@H](Cc1c[nH]c3ccccc13)C(=O)N[C@@H](CCC(N)=O)C(=O)N2 [Compound 87, [6-Aminohexanoyl](1c)*SC(2a)WQC(2a)[Y(2-aminoethoxy)][2-Nal][2-Me-Leu]E(1c)[{d}R]-[NH2]] ([Ahx]SCWQC[AEF][2Nal][αMeL]E[dR]-NH2; linker 3-6 via CH2COCH2; lactam N-10)	Ki (human IL-23R): 0.439 nM; remaining at 1 h, 10 μM ([2]; 1 h, read-out: SIF (% remaining 1 h)): 95%
–	CC(C)C[C@]1(C)NC(=O)[C@H](Cc2ccc3ccccc3c2)NC(=O)[C@H](Cc2ccc(OCCN)cc2)NC(=O)[C@@H]2CSCC(=O)CSC[C@H](NC(=O)[C@H](CO)NC(=O)CN3CCN(CCNC(=O)CC[C@@H](C(=O)N[C@H](CCCNC(=N)N)C(N)=O)NC1=O)CC3)C(=O)N[C@@H](Cc1c[nH]c3ccccc13)C(=O)N[C@@H](CCC(N)=O)C(=O)N2 [Compound 90, [(4-(2-Aminoethyl)-piperazine-1-yl)-acetyl](1c)*SC(2a)WQC(2a)[Y(2-aminoethoxy)][2-Nal][2-Me-Leu]E(1c)[{d}R]-[NH2]] ([Pipz(1-CH2CO,4-CH2CH2NH)]SCWQC[AEF][2Nal][αMeL]E[dR]-NH2; linker 3-6 via CH2COCH2; lactam N-10)	Ki (human IL-23R): 0.706 nM; remaining at 4 h, 10 μM ([2]; 4 h, read-out: SIF (% remaining 4 h)): 67%
